# According to PMC8808168, “Enzymatic and structural characterization of HAD5, an essential phosphomannomutase of malaria-causing parasites” (The Journal of Biological Chemistry, 2021):
# B1: HAD5 (PfHAD5) (Plasmodium falciparum 3D7) (protein)
# chain: MNKKKAIFLFDVDGTLTISRKTIEQNVVDTLLELKSKKGFVLGIVGGSDYKKIREQIKYPEIFDYIFSENGVVAHKNDEEYFAESIVNFLGEDRLKKLINYSLKYIANLDIPKKRGTFIELRNGIINISPIGRNCSQEERDEFFRYNLKNNTIEKFRDNLSKEFEDFDLNFSMGGQISIDCFPKGWDKTFCLKHLENKFDEIYFFGDRTDKGGNDYELFCDKRVKGYKVKNPNDTVKILRENFL
# What was measured:
# [1] = molecular target: T1, HsPMM1 (Homo sapiens, UniProt Q92871); experiment: coupled PGM assay (G6PDH, NADPH at […] nm); type: biochemical; details: 1 mM glucose 1-phosphate, 10 μM G-1,6-P, 1 mM MgCl2, pH 7.5, room temperature, 133 nM enzyme
# T1 construct: gene PMM1; pET28a, His-tag cut with thrombin; E. coli BL21 Gold (DE3)
# T1 sequence (Q92871 2-262): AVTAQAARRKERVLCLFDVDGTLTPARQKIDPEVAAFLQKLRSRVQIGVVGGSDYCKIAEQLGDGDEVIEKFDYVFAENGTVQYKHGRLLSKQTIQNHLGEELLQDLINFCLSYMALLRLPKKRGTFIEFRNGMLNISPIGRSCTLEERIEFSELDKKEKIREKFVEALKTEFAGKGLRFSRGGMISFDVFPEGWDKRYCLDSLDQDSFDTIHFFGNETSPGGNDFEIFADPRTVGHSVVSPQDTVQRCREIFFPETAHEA
# [2] = molecular target: T2, HsPMM2 (Homo sapiens, UniProt O15305); experiment: coupled PGM assay (G6PDH, NADPH at […] nm); type: biochemical; details: 1 mM glucose 1-phosphate, 10 μM G-1,6-P, 1 mM MgCl2, pH 7.5, room temperature, 65 nM enzyme
# T2 construct: gene PMM2; pET28a, His-tag cut with thrombin; E. coli BL21 Gold (DE3)
# T2 sequence (O15305 2-246): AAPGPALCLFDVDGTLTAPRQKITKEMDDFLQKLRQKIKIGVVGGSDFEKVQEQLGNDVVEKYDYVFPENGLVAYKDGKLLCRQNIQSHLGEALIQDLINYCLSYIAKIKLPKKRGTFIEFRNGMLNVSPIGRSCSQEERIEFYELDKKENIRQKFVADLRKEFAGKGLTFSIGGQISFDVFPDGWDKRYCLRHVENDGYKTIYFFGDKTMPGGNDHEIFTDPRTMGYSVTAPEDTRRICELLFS
# [3] = molecular target: T3, HAD5 (PfHAD5) (Plasmodium falciparum, UniProt Q8IJM5); experiment: linked PMM assay, activation; type: biochemical; details: 12.5 μM G-1,6-P, 1 mM mannose 6-phosphate, pH 7.5, room temperature; activator
# T3 construct: gene PF3D7_1017400; pET28a, N-terminal His-tag cut with thrombin; E. coli BL21 Gold (DE3); size-exclusion purified
# T3 sequence (Q8IJM5 1-244): B1 chain
# [4] = substrate: O=P(O)(O)O[C@H]1O[C@H](CO)[C@@H](O)[C@H](O)[C@H]1O; experiment: purified protein; details: G1P to G6P, 10 μM G-1,6-P, 0.75 mM NADP+, 25 mM Tris-HCl, 25 mM NaCl, 1 mM MgCl2, pH 7.5, room temperature
molecule,measurement,setting,value
"O=P(O)(O)C[C@H]1O[C@H](CNO)[C@@H](O)[C@H](O)[C@H]1O [D9, compound D9]",IC50,[1],895 ± 66 µM
same,IC50,[2],413 ± 41 µM
"O=P(O)(O)OC[C@H]1O[C@H](OP(=O)(O)O)[C@H](O)[C@@H](O)[C@@H]1O [glucose-1,6-bisphosphate]","linked PMM assay, activation",[3],"upon addition of the known cofactor glucose-1,6-bisphosphate"
B1,Km,[4],5.2 ± 1.4 µM
same,kcat,[4],7.8e-06 ± 1.2e-06 s⁻¹
same,kcat/Km,[4],1.5 M⁻¹ s⁻¹
